Source: patent US6410588B1, “Use of cannabinoids as anti-inflammatory agents” (priority 1998, dated 2002)

Experiments:
[1] = system: nitric oxide (NO) generation; test: nitric oxide (NO) generation by Thioglycollate induced macrophages, Griess reagent; type: cell-based, mouse; conditions: for NO, 48 h / % INHIBITION of NO, 24 h / NO, 24 h / % INHIBITION of NO, 48 h: LPS 1 μg/ml
[2] = system: Thioglycollate induced macrophages (Mφ); test: viability of macrophages cultured with CBD; type: cell-based, mouse; conditions: 8 μg/ml CBD; after 48 hr
chronic CIA [3] = test: chronic CIA model (mouse CII), CBD i.p.; type: in vivo; conditions: 5 weeks
Description: Results are expressed as a mean of 6 mice. The AUC for the control group is 38.4, and for the 5 mg/kg group 28.9.
(§1) For the chronic experiments, 6 weeks old mice were immunized with mouse CII (100 μg CII i.d.=intradermal). From day 30 after immunization onwards, the mice developed a chronic relapsing arthritis, which was monitored for 5 weeks, in the same way as described above.
(§2) For the chronic experiment with mouse CII, mice were treated from the first symptoms of arthritis every other day, for 5 weeks. […] Again, mice injected with Vehicle alone served as controls (n=7). For the oral route, the treatment was administered daily at a dose of 25 mg/kg (n=6) and control mice were fed olive oil (n=6).

chronic CIA [4] = test: chronic CIA, oral feeding of CBD; type: in vivo, mouse; conditions: 25 mg/kg oral daily
Description: Controls were fed vehicle (olive oil).
as §1, §2

EAE = test: experimental autoimmune encephalomyelitis (EAE); type: in vivo, mouse (SJL/J)
[5] = system: ROI production by granulocytes; test: ROI production by granulocytes, luminol-enhanced chemiluminescence response to zymosan; type: cell-based, mouse (C57BL/6)
Description: Thioglycollate-elicited granulocytes were harvested from C57BL/6 mice by sterile lavage with PBS 18 hrs. after intraperitoneal injection with 1.5 ml thioglycollate medium (1.5 ml in 3% solution). The cells were washed and resuspended at 5×10^5 cells/ml in Hanks' buffered salt solution without phenol red, and distributed at 0.5 ml/tube into luminometer plastic tubes. […] The tube was inserted into luminometer (Biolumate LB 95 oot Berhold Wildbad Germany) which had been prewarmed to 37° C. The granulocyte luminol-enhanced chemiluminescence response to zymosan was considered as the positive control.

TNFα release = test: spontaneous TNF release by murine synovial cells from arthritic mice; type: cell-based, mouse (DBA/1); conditions: for O.D. (cytotoxicity assay for TNF) / TNF: supernatants after 24 h
Description: DBA/1 mice which had been immunized with bovine CII in CFA, to induce CIA, as discussed above, were sacrificed at day 10 of arthritis and the knee joints were removed. Synovial cell cultures were performed as previously described. Briefly, synovial membranes were excised under a dissecting microscope and digested with collagenase A (1 mg/ml) (Boehringer-Mannheim) and DNAase type IV (0.15 mg/ml) (Sigma, Dorset, UK) at 37° C. for 20 minutes, in. the presence of polymyxin B (33 μg/ml) (Sigma). […] Supernatants were collected after 24 h. and stored at −20° C. until measured for cytokines.
Well cytotoxicity assay was used.

Legionella = conditions: mouse, in vivo; cited from earlier work
PBQ-induced writhing = conditions: orally at doses up to 10 mg/kg; cited from earlier work
TPA-induced erythema = conditions: applied topically; cited from earlier work

C=C(C)[C@@H]1CCC(C)=C[C@H]1c1c(O)cc(CCCCC)cc1O [CBD, Cannabidiol]
NO, 48 h ([1]; CBD 2 (μg/ml)): 6.7 nM
% INHIBITION of NO, 24 h ([1]; CBD 4 (μg/ml)): 90%
NO, 24 h ([1]; CBD 4 (μg/ml)): 0.5 nM
% INHIBITION of NO, 48 h ([1]; CBD 4 (μg/ml)): 37%
NO, 48 h ([1]; CBD 4 (μg/ml)): 4.6 nM
% INHIBITION of NO, 24 h ([1]; CBD 6 (μg/ml)): 99%
NO, 24 h ([1]; CBD 6 (μg/ml)): 0.1 nM
% INHIBITION of NO, 48 h ([1]; CBD 6 (μg/ml)): 71%
NO, 48 h ([1]; CBD 6 (μg/ml)): 2.1 nM
% INHIBITION of NO, 24 h ([1]; CBD 8 (μg/ml)): 99%
NO, 24 h ([1]; CBD 8 (μg/ml)): 0.1 nM
% INHIBITION of NO, 48 h ([1]; CBD 8 (μg/ml)): 95%
NO, 48 h ([1]; CBD 8 (μg/ml)): 0.4 nM
effect on nitric oxide production (in words) ([1]; higher concentrations of CBD): inhibit nitric oxide production
effect on nitric oxide production (in words) ([1]; low concentrations of CBD): activate nitric oxide production
viability of Mφ [2]: **After 48 hr the Mφ cultured with 8 μg/ml CBD were only 70% viable
suppression of chronic arthritis (in words) (chronic CIA [3]; 5 mg/kg i.p.): optimal in suppressing the arthritis
area under the curve (AUC) of arthritis score (chronic CIA [3]; 5 mg/kg i.p., control group 38.4): 28.9
suppression of chronic arthritis (in words) (chronic CIA [3]; 10 mg/kg i.p.): less effective than 5 mg/kg
progression of chronic CIA (in words) (chronic CIA [4]): suppression of the progression of chronic CIA
area under the curve of arthritis score (chronic CIA [4]; controls 72.3): 49.7
suppression of EAE (in words) (EAE; 10 mg/kg): markedly suppresses EAE
Duration of EAE (EAE; CBD 10 mg/kg i.p. once a day for 14 days): 2.16 days
Incidence of EAE (EAE; CBD 10 mg/kg i.p. once a day for 14 days, 6 SJL/J mice): 2/6
Mean maximum score (EAE) (EAE; CBD 10 mg/kg i.p. once a day for 14 days, six point scale 0-6): 1
Chemiluminescence computer peak ([5]; Zymozan + CBD 5 μg/ml (1 h)): 157
Chemiluminescence computer peak ([5]; Zymozan + CBD 6 μg/ml (0 h)): 1024
Chemiluminescence computer peak ([5]; Zymozan + CBD 6 μg/ml (2 h)): 235
O.D. (cytotoxicity assay for TNF) (TNFα release; CBD 1 μg/ml): 0.190 ± 0.003
TNF (TNFα release; CBD 1 μg/ml): >1000 pg/mL
O.D. (cytotoxicity assay for TNF) (TNFα release; CBD 2.5 μg/ml): 0.193 ± 0.004
TNF (TNFα release; CBD 2.5 μg/ml): >1000 pg/mL
O.D. (cytotoxicity assay for TNF) (TNFα release; CBD 5 μg/ml): 0.422 ± 0.251
TNF (TNFα release; CBD 5 μg/ml): 100 pg/mL
O.D. (cytotoxicity assay for TNF) (TNFα release; CBD 10 μg/ml): 0.922 ± 0.103
TNF (TNFα release; CBD 10 μg/ml): 2 pg/mL
TNF (TNFα release; CBD 20 μg/ml): <0.01 pg/mL
O.D. (cytotoxicity assay for TNF) (TNFα release; CBD 50 μg/ml): 1.163 ± 0.119
TNF (TNFα release; CBD 50 μg/ml): <0.01 pg/mL
spontaneous TNF release (in words) (TNFα release; CBD added to in vitro cultures): dose-dependent suppression of TNF release
mortality of mice sublethally injected with Legionella (Legionella): not affected
PBQ-induced writhing (PBQ-induced writhing): inhibited PBQ-induced writhing
TPA-induced erythema (TPA-induced erythema): reduce TPA-induced erythema
